In US4389414A, “Prostaglandin compositions” (Syntex (U.S.A.) Inc., priority 1981, dated 1983):
Where “and” joins values, the source holds several entries; their conditions need not be identical. Equal entries are not always repeated.

Test: Absorption rate of carbon-14 Compound A from different vehicles after SQ or IM injection (Example 2, Table I)
Format: in vivo, rats
Settings: for Relative Percent Absorption: compared to aqueous buffer over 6 hours
Method: A series of experiments was carried out to determine the absorption rate of a compound which are useful in the composition of this invention as compared to other compositions which are not included within the scope of the claims of the invention. In each experiment 56 rats were used. Two groups of 27 rats are required for the test formulations and the two remaining rats are used to obtain blank plasma samples. […] Each composition is prepared by dissolving 2.7 milligrams of the compound in 10 milliliters of the solvent. This represents approximately 5 microcuries of carbon 14 and 41 micrograms of dl-9α,11α,15α-trihydroxy-16-phenoxy-17,18,19,20-tetranorprosta-4,5,13-trans-trienoic acid (Compound A). Blood samples from each of three rats from each group are obtained by […] at the following time points after injection: 15 minutes, 30 minutes, 45 minutes, 60 minutes, 2 hours, 3 hours, 4 hours, 5 hours and 6 hours. The two untreated rats are sampled to obtain blank plasma sample.
*Compared to aqueous buffer over 6 hours.

[1] = vehicle 90% Glycerin H2O, SQ, .15 ml, 5 μCi
[2] = vehicle Aq. Buffer, IM, .15 ml, 5 μCi
[3] = vehicle Aq. Buffer, SQ, .15 ml, 5 μCi
[4] = vehicle Glycerin, SQ, .15 ml, 5 μCi
[5] = vehicle PEG 400, IM, .15 ml, 5 μCi
[6] = vehicle PEG 400, SQ, .15 ml, 5 μCi
[7] = vehicle PEG 400, SQ, .30 ml, 10 μCi

Absorption Rate Constant Ka [1]: 6.5 hr^1
Relative Percent Absorption [1]: 51.5%
Absorption Rate Constant Ka [2]: 10.14 hr^1
Relative Percent Absorption [2]: 100%
Absorption Rate Constant Ka [3]: 10.14 hr^1
Relative Percent Absorption [3]: 60.9%
Absorption Rate Constant Ka [4]: 5.0 hr^1
Relative Percent Absorption [4]: 50.4%
Absorption Rate Constant Ka [5]: 3.7 hr^1
Relative Percent Absorption [5]: 35.5%
Absorption Rate Constant Ka [6]: 3.7 hr^1
Relative Percent Absorption [6]: 27.6% and 31.4%
Absorption Rate Constant Ka [7]: 3.7 hr^1
Relative Percent Absorption [7]: 26.2%
SMILES: O=C(O)CCC=C=CC[C@@H]1[C@@H](/C=C/[C@@H](O)COc2ccccc2)[C@H](O)C[C@@H]1O (relative stereo) [Compound A, dl-9α,11α,15α-trihydroxy-16-phenoxy-17,18,19,20-tetranorprosta-4,5,13-trans-trienoic acid]
